From ChEMBL document CHEMBL5291721, “A preclinical secondary pharmacology resource illuminates target-adverse drug reaction associations of marketed drugs” (Nat Commun, 2023) come the findings set out here.

In one assay the target is T1, Adenosine receptor A3 (Homo sapiens, UniProt P0DMS8).
T1 sequence (P0DMS8 whole entry): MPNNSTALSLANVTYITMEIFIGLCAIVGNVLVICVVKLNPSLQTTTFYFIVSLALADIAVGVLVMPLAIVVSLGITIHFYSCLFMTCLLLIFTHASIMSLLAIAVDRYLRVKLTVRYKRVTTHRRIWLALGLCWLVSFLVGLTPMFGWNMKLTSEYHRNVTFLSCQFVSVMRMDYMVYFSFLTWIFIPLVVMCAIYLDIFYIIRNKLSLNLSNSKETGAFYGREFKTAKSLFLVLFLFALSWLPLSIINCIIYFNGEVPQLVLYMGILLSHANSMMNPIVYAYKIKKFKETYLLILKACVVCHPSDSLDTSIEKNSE

Assay [1] concerns the target Beta-1 adrenergic receptor (Homo sapiens, UniProt P08588). It is filed as functional.
The target in the next assay is T2, Androgen receptor (Homo sapiens, UniProt P10275).
T2 sequence (P10275 whole entry): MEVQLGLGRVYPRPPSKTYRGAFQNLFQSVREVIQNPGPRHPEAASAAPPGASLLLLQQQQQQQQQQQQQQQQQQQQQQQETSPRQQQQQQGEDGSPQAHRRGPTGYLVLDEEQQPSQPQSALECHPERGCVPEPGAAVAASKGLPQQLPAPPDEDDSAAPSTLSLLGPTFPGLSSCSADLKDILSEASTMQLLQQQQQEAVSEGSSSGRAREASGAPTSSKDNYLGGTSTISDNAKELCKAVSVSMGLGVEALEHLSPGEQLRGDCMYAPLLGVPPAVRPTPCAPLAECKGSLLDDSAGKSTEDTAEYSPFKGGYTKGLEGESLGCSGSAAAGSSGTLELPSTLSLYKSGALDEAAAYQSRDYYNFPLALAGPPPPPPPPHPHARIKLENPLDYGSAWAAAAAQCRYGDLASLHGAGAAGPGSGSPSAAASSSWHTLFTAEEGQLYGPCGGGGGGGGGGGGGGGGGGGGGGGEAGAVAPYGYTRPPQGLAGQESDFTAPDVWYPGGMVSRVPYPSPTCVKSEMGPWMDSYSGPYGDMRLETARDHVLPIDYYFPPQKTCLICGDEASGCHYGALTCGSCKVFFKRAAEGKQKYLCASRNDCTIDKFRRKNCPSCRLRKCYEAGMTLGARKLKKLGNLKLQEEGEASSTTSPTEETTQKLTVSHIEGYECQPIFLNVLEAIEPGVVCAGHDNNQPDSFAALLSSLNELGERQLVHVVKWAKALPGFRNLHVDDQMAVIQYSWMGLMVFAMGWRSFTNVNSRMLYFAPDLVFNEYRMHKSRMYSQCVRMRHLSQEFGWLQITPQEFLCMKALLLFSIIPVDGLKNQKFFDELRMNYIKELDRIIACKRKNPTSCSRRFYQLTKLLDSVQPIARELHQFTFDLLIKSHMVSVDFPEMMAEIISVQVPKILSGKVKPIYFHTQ

Assay [2] has as its target Neuronal acetylcholine receptor subunit alpha-4 (Homo sapiens, UniProt P43681).
Assay [3] addresses T3, Gamma-aminobutyric acid receptor subunit alpha-1 (Rattus norvegicus, UniProt P62813).
Assay [4] has as its target T3, Gamma-aminobutyric acid receptor subunit alpha-1. The source holds these as a separate data set.
The target is the same in assay [5]. It is filed as functional.
The target of assay [6] is Growth hormone secretagogue receptor type 1 (Homo sapiens, UniProt Q92847).
Sequence of Growth hormone secretagogue receptor type 1 (Q92847 whole entry): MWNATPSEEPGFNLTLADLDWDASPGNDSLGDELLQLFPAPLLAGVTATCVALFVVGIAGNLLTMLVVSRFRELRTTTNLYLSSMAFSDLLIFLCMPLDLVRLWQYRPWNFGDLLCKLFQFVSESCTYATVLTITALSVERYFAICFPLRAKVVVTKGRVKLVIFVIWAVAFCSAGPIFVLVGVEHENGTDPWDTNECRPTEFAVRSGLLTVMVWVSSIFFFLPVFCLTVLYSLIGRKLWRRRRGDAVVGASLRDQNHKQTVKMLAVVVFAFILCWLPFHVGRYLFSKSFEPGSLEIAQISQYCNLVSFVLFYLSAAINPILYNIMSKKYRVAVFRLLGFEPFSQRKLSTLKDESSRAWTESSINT
Assay [7] has as its target T4, Alpha-2A adrenergic receptor (Homo sapiens, UniProt P08913).
T4 sequence (P08913 whole entry): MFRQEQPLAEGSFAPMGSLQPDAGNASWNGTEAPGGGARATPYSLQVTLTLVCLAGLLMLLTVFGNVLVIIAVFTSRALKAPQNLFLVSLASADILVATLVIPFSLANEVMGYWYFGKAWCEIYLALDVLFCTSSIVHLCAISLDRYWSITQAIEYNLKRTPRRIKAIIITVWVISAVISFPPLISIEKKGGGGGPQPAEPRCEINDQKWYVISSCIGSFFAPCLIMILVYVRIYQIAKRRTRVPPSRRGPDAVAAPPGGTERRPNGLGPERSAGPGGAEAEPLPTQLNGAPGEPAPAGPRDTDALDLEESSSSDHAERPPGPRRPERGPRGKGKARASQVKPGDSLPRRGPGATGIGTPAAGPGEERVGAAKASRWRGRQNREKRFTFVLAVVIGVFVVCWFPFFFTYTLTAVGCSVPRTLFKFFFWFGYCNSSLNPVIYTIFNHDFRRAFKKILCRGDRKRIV
It counts as functional, cell-based.

For assay [8], the target named is T5, Amine oxidase [flavin-containing] A (Homo sapiens, UniProt P21397).
T5 sequence (P21397 whole entry): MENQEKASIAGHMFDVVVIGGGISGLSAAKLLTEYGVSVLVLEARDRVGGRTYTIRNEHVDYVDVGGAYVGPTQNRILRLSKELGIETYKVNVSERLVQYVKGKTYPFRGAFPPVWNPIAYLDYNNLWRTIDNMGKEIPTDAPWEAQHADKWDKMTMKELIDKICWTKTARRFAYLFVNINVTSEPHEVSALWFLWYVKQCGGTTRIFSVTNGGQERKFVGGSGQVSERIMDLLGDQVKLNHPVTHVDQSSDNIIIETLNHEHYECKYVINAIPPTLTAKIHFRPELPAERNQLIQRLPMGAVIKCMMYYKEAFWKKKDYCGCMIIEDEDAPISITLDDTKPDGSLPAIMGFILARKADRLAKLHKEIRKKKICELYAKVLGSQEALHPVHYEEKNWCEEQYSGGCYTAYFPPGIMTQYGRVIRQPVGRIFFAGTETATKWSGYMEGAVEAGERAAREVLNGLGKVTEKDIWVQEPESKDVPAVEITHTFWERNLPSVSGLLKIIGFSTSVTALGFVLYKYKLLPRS
It is filed as functional.
Further: assay procedure not described here.

T3 sequence (P62813 whole entry): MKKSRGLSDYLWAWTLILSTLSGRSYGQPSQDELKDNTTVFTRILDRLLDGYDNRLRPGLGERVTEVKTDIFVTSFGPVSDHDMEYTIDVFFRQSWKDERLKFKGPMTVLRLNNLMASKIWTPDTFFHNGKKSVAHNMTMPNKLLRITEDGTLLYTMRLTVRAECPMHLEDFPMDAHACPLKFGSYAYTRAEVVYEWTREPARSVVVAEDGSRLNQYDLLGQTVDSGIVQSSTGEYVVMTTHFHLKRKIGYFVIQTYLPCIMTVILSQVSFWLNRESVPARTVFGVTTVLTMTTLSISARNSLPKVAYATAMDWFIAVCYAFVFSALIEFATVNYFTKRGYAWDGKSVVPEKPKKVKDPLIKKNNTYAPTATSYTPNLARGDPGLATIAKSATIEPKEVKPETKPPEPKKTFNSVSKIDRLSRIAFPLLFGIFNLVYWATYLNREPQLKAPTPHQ
Sequence of Beta-1 adrenergic receptor (P08588 whole entry): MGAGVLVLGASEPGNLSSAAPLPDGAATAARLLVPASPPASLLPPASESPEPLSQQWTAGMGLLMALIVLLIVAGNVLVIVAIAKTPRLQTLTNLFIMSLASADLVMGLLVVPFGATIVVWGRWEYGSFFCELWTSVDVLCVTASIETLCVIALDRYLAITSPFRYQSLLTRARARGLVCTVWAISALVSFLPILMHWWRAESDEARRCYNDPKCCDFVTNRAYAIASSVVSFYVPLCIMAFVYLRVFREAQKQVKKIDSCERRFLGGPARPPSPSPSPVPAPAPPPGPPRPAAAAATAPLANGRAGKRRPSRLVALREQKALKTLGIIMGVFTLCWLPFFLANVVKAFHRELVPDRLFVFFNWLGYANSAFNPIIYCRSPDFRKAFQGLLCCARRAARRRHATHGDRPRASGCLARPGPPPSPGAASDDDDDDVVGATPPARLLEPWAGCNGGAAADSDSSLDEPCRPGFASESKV
Sequence of Neuronal acetylcholine receptor subunit alpha-4 (P43681 whole entry): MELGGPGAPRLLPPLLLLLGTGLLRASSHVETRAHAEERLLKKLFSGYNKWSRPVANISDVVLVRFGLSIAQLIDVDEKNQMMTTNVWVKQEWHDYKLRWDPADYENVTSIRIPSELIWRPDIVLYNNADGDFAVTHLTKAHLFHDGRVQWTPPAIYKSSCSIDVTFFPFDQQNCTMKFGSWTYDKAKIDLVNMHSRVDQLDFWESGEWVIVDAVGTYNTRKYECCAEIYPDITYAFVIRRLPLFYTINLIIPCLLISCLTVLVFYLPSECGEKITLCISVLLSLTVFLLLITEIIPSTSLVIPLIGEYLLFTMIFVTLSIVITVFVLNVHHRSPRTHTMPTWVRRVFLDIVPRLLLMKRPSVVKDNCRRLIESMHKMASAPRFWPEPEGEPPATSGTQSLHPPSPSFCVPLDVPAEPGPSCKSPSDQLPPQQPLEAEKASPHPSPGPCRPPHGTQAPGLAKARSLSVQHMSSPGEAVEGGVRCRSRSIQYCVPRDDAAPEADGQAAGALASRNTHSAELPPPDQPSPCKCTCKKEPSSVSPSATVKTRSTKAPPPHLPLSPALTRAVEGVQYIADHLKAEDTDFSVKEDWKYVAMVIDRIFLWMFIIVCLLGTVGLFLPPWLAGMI

What is called AC50 is the concentration at which the activity in the assay is half-maximal. Turning to `C[C@]1(COc2ccc(N3CCC(Oc4ccc(OC(F)(F)F)cc4)CC3)cc2)Cn2cc([N+](=O)[O-])nc2O1`, the AC50 is over 30 µM at Adenosine receptor A3; over 10 µM in [1]; over 30 µM on Androgen receptor; over 10 µM in assay [2]; over 10 µM in [3]; over 30 µM in assay [4]. Moreover, the AC50 is over 10 µM in assay [5] and over 30 µM in assay [6].

`CC(=O)OC(C)OC(=O)C(C)c1ccc(-c2ccccc2)c(F)c1` (stereo not drawn): the concentration at half-maximal activity (AC50) (on Androgen receptor; in assay [4]) was over 30 µM in each case.

Consider `C[C@H](N)C(=O)O` [ALANINE], for which the AC50 (on Androgen receptor; in assay [4]) was over 30 µM throughout.

Take `O=C(Nc1nc(-c2cc(Cl)cs2)c(N2CCN(C3CCCCC3)CC2)s1)c1cnc(N2CCC(C(=O)O)CC2)c(Cl)c1` [AVATROMBOPAG]: the AC50 at Adenosine receptor A3 is over 10 µM; in assay [1] it was over 10 µM; on Androgen receptor, over 30 µM; in [2] it was over 10 µM; in [3], over 10 µM; in [4] it was over 30 µM. The AC50 in assay [5] and in [6] was over 10 µM throughout.

For `COC(=O)C1=C(C)NC(C)=C(C(=O)O[C@H]2CCN(Cc3ccccc3)C2)[C@H]1c1cccc([N+](=O)[O-])c1` [BARNIDIPINE], the AC50 (at Androgen receptor; in assay [4]) was over 30 µM in each case.

As to `Cc1nnc(SCC2=C(C(=O)O)N3C(=O)[C@@H](NC(=O)Cn4cc(Cl)c(=O)c(Cl)c4)[C@H]3SC2)s1` [CEFAZEDONE], the AC50 (on Androgen receptor; in assay [4]) was over 30 µM throughout.

For `CCC[C@@H]1C[C@@H](C(=O)N[C@@H]([C@H]2O[C@H](SC)[C@H](OP(=O)(O)O)[C@@H](O)[C@H]2O)[C@H](C)Cl)N(C)C1` [CLINDAMYCIN PHOSPHATE], the half-maximal activity concentration (AC50) (at Androgen receptor; in assay [4]) was over 30 µM in each case.

For the compound `Oc1c(I)cc(Cl)c2cccnc12` [CLIOQUINOL], the AC50 (in assay [7]; at Androgen receptor; in assay [3]; in [4]; in assay [5]; in assay [8]) was over 30 µM throughout.

Turning to `NC(=O)NCCC[C@H](N)C(=O)O` [L-CITRULLINE], the AC50 (on Androgen receptor; in assay [4]) was over 30 µM each time.

In the case of `CC(=O)O[C@H]1C[C@H](O[C@H]2[C@@H](O)C[C@H](O[C@H]3[C@@H](O)C[C@H](O[C@H]4CC[C@@]5(C)[C@H](CC[C@@H]6[C@@H]5C[C@@H](O)[C@]5(C)[C@@H](C7=CC(=O)OC7)CC[C@]65O)C4)O[C@@H]3C)O[C@@H]2C)O[C@H](C)[C@H]1O[C@@H]1O[C@H](CO)[C@@H](O)[C@H](O)[C@H]1O` [LANATOSIDE C], the AC50 (on Androgen receptor; in assay [4]) was over 30 µM in each case.

In the case of `Nc1nc(N)nc(Nc2ccc([As]3SCC(CO)S3)cc2)n1` (stereo not drawn) [MELARSOPROL], the AC50 was over 30 µM at Androgen receptor and 21 µM in [4].

Regarding `CO[C@H]1[C@@H](O)C[C@H](O[C@H]2[C@@H](O)C[C@H](O[C@H]3[C@@H](O)C[C@H](O[C@H]4CC[C@@]5(C)[C@H](CC[C@@H]6[C@@H]5C[C@@H](O)[C@]5(C)[C@@H](C7=CC(=O)OC7)CC[C@]65O)C4)O[C@@H]3C)O[C@@H]2C)O[C@@H]1C` [METILDIGOXIN], the AC50 (on Androgen receptor; in assay [4]) was over 30 µM in each case.

For the compound `CC1(C)S[C@@H]2[C@H](NC(=O)[C@H](NC(=O)N3CCN(S(C)(=O)=O)C3=O)c3ccccc3)C(=O)N2[C@H]1C(=O)O` [MEZLOCILLIN], the AC50 (at Androgen receptor; in [4]) was over 30 µM throughout.

`CCC(=O)O[C@@H]1CC(=O)O[C@H](C)C/C=C/C=C/[C@H](OC(C)=O)[C@H](C)C[C@H](CC=O)[C@H](O[C@@H]2O[C@H](C)[C@@H](O[C@H]3C[C@@](C)(OC(C)=O)[C@@H](OC(=O)CC)[C@H](C)O3)[C@H](N(C)C)[C@H]2O)[C@H]1OC` [MIOCAMYCIN]: the AC50 (on Androgen receptor; in assay [4]) was over 30 µM each time.

`c1ccc2c(CC3=NCCN3)cccc2c1` [NAPHAZOLINE]: the AC50 was 0.14 µM in [7], over 30 µM at Androgen receptor and over 30 µM in assay [4].

Consider `CCCCCCCCCCCCCCCCCC(=O)NCCCC[C@H](NC(=O)CC[C@@H](NC(=O)[C@H](C)NC(=O)[C@@H](C)O[C@H]1[C@H](O)[C@@H](CO)OC(O)[C@@H]1NC(C)=O)C(N)=O)C(=O)O` (stereo partly drawn) [ROMURTIDE], for which the AC50 is 5.69 µM at Androgen receptor and over 30 µM in assay [4].

In the case of `CCOC(=O)[C@H](CCc1ccccc1)N[C@H]1CS[C@H](c2cccs2)CN(CC(=O)O)C1=O` [TEMOCAPRIL], the AC50 (on Androgen receptor; in assay [4]) was over 30 µM throughout.

`C[C@@H]1C[C@H]2[C@@H]3CCC4=CC(=O)C=C[C@]4(C)C3=CC[C@]2(C)[C@H]1C(=O)CN1CCN(c2cc(N3CCCC3)nc(N3CCCC3)n2)CC1` [TIRILAZAD]: the AC50 at Androgen receptor was 6.61 µM; in assay [4], over 30 µM.
